Results: ChEMBL document CHEMBL1123971, “Synthesis, platelet aggregation inhibitory activity, and in vivo antithrombotic activity of new 1,4-dihydropyridines” (J Med Chem, 1988)

Legend:
[1] = system: Felis catus; experiment: Effect of intraperitoneal infusion on systolic pressure in Anesthetized cats at a dose of 200 mg/kg at 90 min; assay type: functional
[2] = system: Felis catus; experiment: Effect of intravenous infusion of compound on diastolic pressure in Anesthetized cats at a dose of 3 mg/kg at 20 min; assay type: functional
[3] = system: Felis catus; experiment: Effect of intravenous infusion on systolic pressure in Anesthetized cats at a dose of 0.15 mg/kg at 1 min; assay type: functional
[4] = system: Felis catus; experiment: Effect of intravenous infusion on systolic pressure in Anesthetized cats at a dose of 0.30 mg/kg at 2 min; assay type: functional; details: dose 0.3 mg/kg
[5] = system: Felis catus; experiment: Effect of intravenous infusion on systolic pressure in Anesthetized cats at a dose of 0 mg/kg at 0 min; assay type: functional
[6] = system: Felis catus; experiment: Effect of intraperitoneal infusion on diastolic pressure in Anesthetized cats at a dose of 200 mg/kg at 120 min; assay type: functional
[7] = system: Felis catus; experiment: Effect of intraperitoneal infusion on diastolic pressure in Anesthetized cats at a dose of 200 mg/kg at 135 min; assay type: functional
[8] = system: Felis catus; experiment: Effect of intraperitoneal infusion on diastolic pressure in Anesthetized cats at a dose of 200 mg/kg at 180 min; assay type: functional
[9] = system: Felis catus; experiment: Effect of intravenous infusion on systolic pressure in Anesthetized cats at a dose of 1.50 mg/kg at 10 min; assay type: functional; details: dose 1.5 mg/kg
[10] = system: Felis catus; experiment: Effect of intravenous infusion on diastolic pressure in Anesthetized cats at a dose of 1.50 mg/kg at 10 min; assay type: functional; details: dose 1.5 mg/kg
[11] = system: Felis catus; experiment: Effect of intraperitoneal infusion on diastolic pressure in Anesthetized cats at a dose of 200 mg/kg at 90 min; assay type: functional
[12] = system: Felis catus; experiment: Effect of intraperitoneal infusion on systolic pressure in Anesthetized cats at a dose of 200 mg/kg at 0 min; assay type: functional
[13] = system: Felis catus; experiment: Effect of intraperitoneal infusion on systolic pressure in Anesthetized cats at a dose of 200 mg/kg at 120 min; assay type: functional
[14] = system: Felis catus; experiment: Effect of intraperitoneal infusion on systolic pressure in Anesthetized cats at a dose of 200 mg/kg at 165 min; assay type: functional
[15] = system: Felis catus; experiment: Effect of intraperitoneal infusion on systolic pressure in Anesthetized cats at a dose of 200 mg/kg at 60 min; assay type: functional
[16] = system: Felis catus; experiment: Effect of intravenous infusion on respiration frequency in Anesthetized cats at a dose of 0.15 mg/kg at 1 min; assay type: functional
[17] = system: Felis catus; experiment: Effect of intravenous infusion on respiration frequency in Anesthetized cats at a dose of 0.30 mg/kg at 2 min; assay type: functional; details: dose 0.3 mg/kg
[18] = system: Felis catus; experiment: Effect of intravenous infusion on respiration frequency in Anesthetized cats at a dose of 0.75 mg/kg at 5 min; assay type: functional
[19] = system: Felis catus; experiment: Effect on respiration frequency in Anesthetized cats at a dose of 2.25 mg/kg at 15 min; assay type: functional
[20] = system: Felis catus; experiment: Effect of intraperitoneal infusion of compound on cardiac frequency in Anesthetized cats at a dose of 200 mg/kg at 90 min; assay type: functional, Heart
[21] = system: Felis catus; experiment: Effect of intraperitoneal infusion of compound on cardiac frequency in Anesthetized cats at a dose of 200 mg/kg at 180 mins; assay type: functional, Heart
[22] = system: Felis catus; experiment: Effect of intraperitoneal infusion of compound on cardiac frequency in Anesthetized cats at a dose of 200 mg/kg at 105 min; assay type: functional, Heart
[23] = system: Felis catus; experiment: Effect of intraperitoneal infusion of compound on cardiac frequency in Anesthetized cats at a dose of 200 mg/kg at 15 min; assay type: functional, Heart
[24] = system: Felis catus; experiment: Effect of intraperitoneal infusion of compound on cardiac frequency in Anesthetized cats at a dose of 200 mg/kg at 165 min; assay type: functional, Heart
[25] = system: Felis catus; experiment: Effect of intraperitoneal infusion of compound on cardiac frequency in Anesthetized cats at a dose of 200 mg/kg at 30 min; assay type: functional, Heart
[26] = system: Felis catus; experiment: Effect of intraperitoneal infusion of compound on cardiac frequency in Anesthetized cats at a dose of 200 mg/kg at 60 min; assay type: functional, Heart
[27] = system: Felis catus; experiment: Effect of intravenous infusion on cardiac frequency in Anesthetized cats at a dose of 0.00 mg/kg at 0 min; assay type: functional, Heart
[28] = system: Felis catus; experiment: Effect of intravenous infusion on cardiac frequency in Anesthetized cats at a dose of 1.50 mg/kg at 10 min; assay type: functional, Heart; details: dose 1.5 mg/kg
[29] = system: Felis catus; experiment: Effect on cardiac frequency in Anesthetized cats at a dose of 2.25 mg/kg at 15 min; assay type: functional, Heart
[30] = system: Felis catus; experiment: Effect of intraperitoneal infusion on respiration frequency in Anesthetized cats at a dose of 200 mg/kg at 105 min; assay type: functional
[31] = system: Felis catus; experiment: Effect of intraperitoneal infusion on respiration frequency in Anesthetized cats at a dose of 200 mg/kg at 135 min; assay type: functional
[32] = system: Felis catus; experiment: Effect of intraperitoneal infusion on respiration frequency in Anesthetized cats at a dose of 200 mg/kg at 15 min; assay type: functional
[33] = system: Felis catus; experiment: Effect of intraperitoneal infusion on diastolic pressure in Anesthetized cats at a dose of 200 mg/kg at 0 min; assay type: functional
[34] = system: Felis catus; experiment: Effect of intraperitoneal infusion on diastolic pressure in Anesthetized cats at a dose of 200 mg/kg at 105 min; assay type: functional
[35] = species: Cavia porcellus; experiment: Chronotropic activity on left and right guinea pig artia (beats/min), at 120 min; assay type: functional
[36] = species: Cavia porcellus; experiment: Chronotropic activity on left and right guinea pig artia (beats/min), at 150 min; assay type: functional
[37] = species: Cavia porcellus; experiment: Chronotropic activity on left and right guinea pig artia (beats/min), at 180 min; assay type: functional
[38] = species: Cavia porcellus; experiment: Chronotropic activity on left and right guinea pig artia (beats/min), at 45 min; assay type: functional
[39] = species: Cavia porcellus; experiment: Chronotropic activity on left and right guinea pig artia (beats/min), at 90 min; assay type: functional
[40] = species: Cavia porcellus; experiment: Effect on guinea pig artia (beats/min), at the a dose of 0 M; assay type: functional
[41] = species: Cavia porcellus; experiment: Effect on guinea pig artia (beats/min), at the a dose of 10e-6 M; assay type: functional
[42] = species: Oryctolagus cuniculus; experiment: Effect on 35 mM K+-induced contraction on rabbit aorta at a dose of 10E-6 mol/L; assay type: functional
[43] = species: Oryctolagus cuniculus; experiment: Effect on 35 mM K+-induced contraction on rabbit aorta at a dose of 10E-7 mol/L; assay type: functional
[44] = species: Oryctolagus cuniculus; experiment: Effect on 35 mM K+-induced contraction on rabbit aorta at a dose of 3*10e-7 mol/L; assay type: functional
[45] = species: Oryctolagus cuniculus; experiment: Effect on 35 mM K+-induced contraction on rabbit aorta at a dose of 3*10e-8 mol/L; assay type: functional
[46] = species: Oryctolagus cuniculus; experiment: Effect on 35 mM K+-induced contraction on rabbit aorta at a dose of 10E-9 mol/L; assay type: functional
[47] = system: Felis catus; experiment: Effect of intravenous infusion on respiration frequency in Anesthetized cats at a dose of 0 mg/kg at 0 min; assay type: functional
[48] = species: Oryctolagus cuniculus; experiment: Effect on 35 mM K+-induced contraction on rabbit aorta at a dose of 3*10e-6 mol/L; assay type: functional

In the case of CCO/C(O)=C1\C(C)=NC(C)=C(C(=O)OCCN2C(=O)c3ccccc3S2(=O)=O)C1C (stereo not given), the Arterial pressure [1] is reported as 138 mmHg, the Arterial pressure [2] is reported as 110 mmHg and the Arterial pressure [3] is reported as 165 mmHg. It also gave an Arterial pressure [4] of 165 mmHg, an Arterial pressure [5] of 165 mmHg and an Arterial pressure [6] of 85 mmHg. It also gave an Arterial pressure [7] of 80 mmHg, an Arterial pressure [8] of 80 mmHg and an Arterial pressure [9] of 160 mmHg. For the same molecule, the Arterial pressure [10] was 110 mmHg, the Arterial pressure [11] was 85 mmHg and the Arterial pressure [12] was 130 mmHg. For the same molecule, the Arterial pressure [13] was 145 mmHg, the Arterial pressure [14] was 142 mmHg and the Arterial pressure [15] was 130 mmHg. The Respiratory frequency [16] was 18 r.p.m, the Respiratory frequency [17] was 18 r.p.m and the Respiratory frequency [18] was 19 r.p.m. For the same molecule, the Respiratory frequency [19] was 19 r.p.m, the Cardiac frequency [20] was 256 beats min-1 and the Cardiac frequency [21] was 276 beats min-1. It also gave a Cardiac frequency [22] of 259 beats min-1, a Cardiac frequency [23] of 254 beats min-1 and a Cardiac frequency [24] of 278 beats min-1. The Cardiac frequency [25] was 245 beats min-1, the Cardiac frequency [26] was 256 beats min-1 and the Cardiac frequency [27] was 190 beats min-1. The Cardiac frequency [28] was 210 beats min-1, the Cardiac frequency [29] was 217 beats min-1 and the Respiratory frequency [30] was 12 r.p.m. The Respiratory frequency [31] was 15 r.p.m, the Respiratory frequency [32] was 14 r.p.m and the Arterial pressure [33] was 85 mmHg. The Arterial pressure [34] was 87 mmHg, the Beats/min [35] was 131 and the Control [35] was 95.6%. The Beats/min [36] was 129, the Control [36] was 94.2% and the Beats/min [37] was 130. For the same molecule, the Control [37] was 94.9%, the Beats/min [38] was 138 and the Control [38] was 100.4%. The Beats/min [39] was 133, the Control [39] was 97.1% and the Beats/min [40] was 183. The Control [40] was 100%, the Beats/min [41] was 181 and the Control [41] was 98.5%. The Inhibition [42] was 48.13%, the Inhibition [43] was 12.6% and the Inhibition [44] was 23.89%. The Inhibition [45] was 0%, the Inhibition [46] was 0% and the Respiratory frequency [47] was 18 r.p.m. It also gave an Inhibition [48] of 71.3%.
